Source: patent US4055637A, “Medicinal preparation for healing wounds and treating dermatites using 1-(chloromethyl)silatrane” (priority 1975, dated 1977)

Test: solubility and physical properties of the active principle
Type: physicochemical

**Q.** Which solubility in alcohol (alcohol) does the source give for ClC[Si]12OCCN(CCO1)CCO2 [1-(chloromethyl)silatrane] here?
**A.** The solubility in alcohol was “difficultly soluble”.

**Q.** And the solubility in chloroform (chloroform)?
**A.** The solubility in chloroform was “readily soluble”.

**Q.** And the sterilizability (dry state)?
**A.** The sterilizability was “sterilizable in a dry state”.

**Q.** What about the solubility in ether (ether) of the same compound?
**A.** The solubility in ether was “insoluble”.

**Q.** What about the solubility in water (water) of the same compound?
**A.** The solubility in water was “poorly soluble”.

**Q.** What about the hygroscopicity (white crystalline powder) of the same compound?
**A.** Its hygroscopicity is “non-hygroscopic”.
